PMC5805629 (Journal of medicinal chemistry, 2018)
Blank lines part the entries; values can stand above or below the compound they belong to.

Experiments:
[1] = tested on: SW620/Ad300 drug-resistant cell lines; details: cited from earlier work
tumor = details: mice; no apparent side-effects; cited from earlier work
[2] = tested on: SW620/Ad300 drug-resistant cell lines; details: 10 μM in vitro; cited from earlier work
human P-gp [3] = target: T1, human P-gp (Homo sapiens, UniProt P08183); details: read-out: [125I]-IAAP labeling IC50; inhibition of photolabeling of P-gp; cited from earlier work
human P-gp [4] = target: T1, human P-gp; details: 20 min, 2.5 µM, pH 6.8
CYP3A4 = CYP3A4 (Homo sapiens, UniProt P08684); experiment: In vitro CYP3A4 enzyme inhibition assay; assay type: in vitro ADME; details: 25 μM
HEK 293-pcDNA 3.1 cells = experiment: MDR reversal; assay type: cell-based; details: 72 h, read-out: IC50 ± SD of paclitaxel
MDR reversal = assay type: cell-based; details: human
[5] = tested on: parental and resistant cell lines; experiment: Preliminary cytotoxicity of reversal compounds treated alone; assay type: cell-based; details: 5 μM concentration

T1 sequence (P08183 whole entry): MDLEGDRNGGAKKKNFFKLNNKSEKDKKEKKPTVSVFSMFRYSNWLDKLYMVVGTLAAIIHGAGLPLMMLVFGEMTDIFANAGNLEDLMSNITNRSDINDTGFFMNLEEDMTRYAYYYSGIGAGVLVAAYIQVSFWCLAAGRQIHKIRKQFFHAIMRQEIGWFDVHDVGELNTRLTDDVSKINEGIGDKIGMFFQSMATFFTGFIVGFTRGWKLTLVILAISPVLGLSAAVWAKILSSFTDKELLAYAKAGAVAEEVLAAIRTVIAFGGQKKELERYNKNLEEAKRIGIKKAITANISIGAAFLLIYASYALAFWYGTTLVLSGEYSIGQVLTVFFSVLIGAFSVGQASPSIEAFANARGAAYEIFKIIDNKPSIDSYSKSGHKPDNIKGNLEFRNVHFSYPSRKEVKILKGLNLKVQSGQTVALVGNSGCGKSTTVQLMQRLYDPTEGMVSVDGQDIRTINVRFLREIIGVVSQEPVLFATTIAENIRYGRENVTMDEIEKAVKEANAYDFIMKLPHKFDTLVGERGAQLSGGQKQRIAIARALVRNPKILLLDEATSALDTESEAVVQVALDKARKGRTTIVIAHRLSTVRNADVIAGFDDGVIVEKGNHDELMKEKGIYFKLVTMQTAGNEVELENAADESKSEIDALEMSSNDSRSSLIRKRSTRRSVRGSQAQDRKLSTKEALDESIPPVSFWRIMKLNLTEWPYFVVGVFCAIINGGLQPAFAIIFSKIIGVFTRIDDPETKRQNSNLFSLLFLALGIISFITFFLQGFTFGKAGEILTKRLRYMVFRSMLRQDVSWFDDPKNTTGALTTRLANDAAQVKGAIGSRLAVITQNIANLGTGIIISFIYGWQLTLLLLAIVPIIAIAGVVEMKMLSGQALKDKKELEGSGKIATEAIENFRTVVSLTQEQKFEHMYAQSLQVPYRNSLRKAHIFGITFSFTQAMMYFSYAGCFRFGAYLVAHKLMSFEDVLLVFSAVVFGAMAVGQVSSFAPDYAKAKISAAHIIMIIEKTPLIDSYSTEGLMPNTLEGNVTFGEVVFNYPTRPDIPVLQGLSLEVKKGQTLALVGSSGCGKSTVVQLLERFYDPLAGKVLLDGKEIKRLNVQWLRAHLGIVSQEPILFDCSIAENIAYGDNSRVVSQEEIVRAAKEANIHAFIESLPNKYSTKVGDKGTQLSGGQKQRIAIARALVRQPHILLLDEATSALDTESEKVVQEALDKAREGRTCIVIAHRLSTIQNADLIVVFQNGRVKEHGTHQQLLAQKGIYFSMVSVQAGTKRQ
CYP3A4, sequence (P08684 whole entry): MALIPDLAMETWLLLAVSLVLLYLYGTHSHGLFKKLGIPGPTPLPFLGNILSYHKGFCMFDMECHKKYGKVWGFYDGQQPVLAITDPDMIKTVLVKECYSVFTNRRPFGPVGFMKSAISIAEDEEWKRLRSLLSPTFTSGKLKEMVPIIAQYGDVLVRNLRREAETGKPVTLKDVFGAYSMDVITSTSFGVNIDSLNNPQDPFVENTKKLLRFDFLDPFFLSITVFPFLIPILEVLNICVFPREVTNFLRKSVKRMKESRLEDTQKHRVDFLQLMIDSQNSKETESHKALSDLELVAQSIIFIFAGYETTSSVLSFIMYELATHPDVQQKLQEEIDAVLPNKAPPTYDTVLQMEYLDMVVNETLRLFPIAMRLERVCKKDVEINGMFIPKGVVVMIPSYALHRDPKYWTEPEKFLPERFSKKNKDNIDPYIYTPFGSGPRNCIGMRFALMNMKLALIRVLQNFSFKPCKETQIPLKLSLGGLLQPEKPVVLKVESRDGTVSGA

SMILES: COc1cc(C(=O)N[C@H](c2nc(C(=O)Nc3ccccc3C(=O)c3ccccc3)cs2)C(C)C)cc(OC)c1OC [Compound 1, (S)-N-(2-benzoylphenyl)-2-(2-methyl-1-(3,4,5-trimethoxybenzamido)propyl)thiazole-4-carboxamide]
intracellular paclitaxel concentration [1]: increased intracellular paclitaxel concentration
tumor volume and tumor weight (tumor): reduced tumor volume and tumor weight
reversal of resistance to paclitaxel, doxorubicin and vincristine [2]: significant reversal of resistance
IC50 (human P-gp [3]): 720 nM

ATPase activity % Stimulation (human P-gp [4]): 15%
SMILES: COc1cc(C(=O)N[C@H](c2nc(C(=O)NC3CCNCC3)cs2)C(C)C)cc(OC)c1OC [Compound 42, (S)-2-(2-Methyl-1-(3,4,5-trimethoxybenzamido)propyl)-N-(piperidin-4-yl)thiazole-4-carboxamide]

ATPase activity % Stimulation (human P-gp [4]): 21%
SMILES: COc1cc(C(=O)N[C@H](c2nc(C(=O)NCC3CCC(F)(F)CC3)cs2)C(C)C)cc(OC)c1OC [Compound 63, (S)-N-((4,4-Difluorocyclohexyl)methyl)-2-(2-methyl-1-(3,4,5-trimethoxybenzamido)propyl)thiazole-4-carboxamide]

CYP3A4 Inhibition (%) (CYP3A4): did not inhibit
SMILES: COc1cc(C(=O)NC(Cc2ccccc2)c2nc(C(=O)NC3CCC(F)(F)CC3)cs2)cc(OC)c1OC (stereo not shown) [Compound 109, N-(4,4-Difluorocyclohexyl)-2-(2-phenyl-1-(3,4,5-trimethoxybenzamido)ethyl)thiazole-4-carboxamide]

IC50 at 72 h (MDR reversal): 2050 ± 87 nM
SMILES: CC(=O)O[C@H]1C(=O)[C@@]2(C)[C@H]([C@H](OC(=O)c3ccccc3)[C@]3(O)C[C@H](OC(=O)[C@H](O)[C@@H](NC(=O)c4ccccc4)c4ccccc4)C(C)=C1C3(C)C)[C@]1(OC(C)=O)CO[C@@H]1C[C@@H]2O [Paclitaxel, paclitaxel]
IC50 (HEK 293-pcDNA 3.1 cells): 71 ± 15 nM

SMILES: O[C@@H](COc1cccc2ncccc12)CN1CCN([C@@H]2c3ccccc3[C@@H]3[C@H](c4ccccc42)C3(F)F)CC1 [Zosuquidar, zosuquidar]
cytotoxicity [5]: cytotoxic
